Data set [1] has as its target T1, GHB high-affinity binding site/CaMK2a (Rattus norvegicus, UniProt P11275).
T1 construct: rat (Sprague-Dawley) cortical synaptic membranes (P2 synaptosomes) were prepared; from tissue; host or cells: rat (Sprague-Dawley) cortical synaptic membranes (P2 synaptosomes)
The data set can be described thus: Rat brain membrane [3H]NCS-382 binding assay. To be noted: 16 nM [3H]NCS-382, rat cortical synaptic membranes, pH 6.0, 0-4 °C. How it is done: According to previously published protocols, rat (Sprague-Dawley) cortical synaptic membranes (P2 synaptosomes) were prepared and stored at -20 °C until the day of assay (Wellendorph et al., 2005). Membranes were then washed three times with binding buffer (50 mM potassium phosphate buffer pH 6.0). The binding protocol was performed in 96-well microplates. In brief, compounds were incubated with 16 nM [^3H]NCS-382 radioligand and membranes for 60 min at 0-4 °C, filtered through GF/C filter plates (PerkinElmer) using a 96-well harvester (Packard), rapidly washed three times with ice-cold binding buffer, and filter plates dried. CPM values were determined using liquid scintillation counting in a TopCount NXT Microplate Scintillation & Luminescence Counter (PerkinElmer). Curves were generated using non-linear regression (GraphPad Prism 7, GraphPad Prism Software, San Diego, CA, USA).
JON-11, related analogues, and pro-JON-11(10) were tested in the [^3H]NCS-382 binding assay (Wellendorph et al., 2005).

The next data set concerns the target T2, recombinant CaMK2a (Rattus norvegicus, UniProt P11275).
T2 construct: host or cells: HEK293T
The data set can be described thus: [3H]HOCPCA binding to recombinant CaMK2a expressed in HEK293T cells. How it is done: Protein concentration was determined using the Bradford protein assay. […] The dried filters were added scintillation liquid and radioactivity measured on a Tricarb 2100 Scintillation counter (Packard).

A further data set concerns the target T3, GABAB(1b,2) receptors (Homo sapiens, UniProt Q9UBS5).
T3 construct: expressed in transfected cells
The data set can be described thus: GABAB functional assay in CHO cells. Type of data set: cell-based. To be noted: CHO cells stably expressing GABAB(1b,2), concentrations up to 300 µM. An excerpt:
(§1) To assess affinity of JON-11 for the GABAB receptor, we employed a GABAB binding assay using rat brain synaptic membranes (Wellendorph et al., 2005). […] B) JON-11 was further assessed for functional activity using CHO cells stably expressing GABAB(1b,2) receptors (Rajalu et al., 2015).

The format of data set [2] is in vitro ADME, mouse. To be noted: during the metabolic stability study. How it is done: Metabolic stability analysis was performed on a Bruker Avance Ultra High Performance Liquid Chromatography (UHPLC) (Bruker Daltonik, Bremen, Germany) equipped with a CTC-PAL-xt autosampler with cooled sample compartments (10 °C) and a column oven held at 40 °C. The UHPLC eluate was directed to a Bruker Evoq Elite triple quad-ropole MS equipped with a heated electrospray ionization source operated in positive ionization mode. Separation of 15 µL sample was obtained using a Phenomenex (Phenomenex, Torrance, CA, USA) Kinetex XB-C18 column (50 mm × 2.1 mm i.d., 1.7 µm particle size) equipped with a guard column. The analytes were separated using a solvent system consisting of water/acetonitrile (95:5, v/v) (eluent A) and water/acetonitrile (5:95, v/v) (eluent B); both acidified with 0.1% formic acid. The eluent flow rate was maintained at 0.4 mL/min with the following gradient elution profile: 0 min: 0% B; 5 min: 100% B; 6 min: 100% B, followed by three min equilibration at 0% B. Two ion transitions were monitored for all analytes and internal standard.
The mouse liver microsome assay was performed by transferring 25 µL of a 20 µM solution of the test compound (0.5% DMSO), dissolved in potassium phosphate monobasic buffer (pH 7.4) containing 3 mM MgCl2, to 9 wells in a microtiter plate. To each well, […] of a 0.5 mg/mL mouse liver (Sigma Aldrich) in buffer was added, and the microtiter plate were pre-incubated for 5 min at 37 °C in a plate shaker at 600 rpm. After pre-incubation, 50 µL 37 °C NADPH regenerating system, consisting of 2 mM NADP+, 10mM glucose-6-phosphate, and 2 U/mL glucose-6-phosphate dehydrogenase dissolved in buffer, was added to start the assay. In triplicates, immediately after adding the NADPH solution, 75 µL was transferred to an Eppendorf tube, containing […] ice-cold acetonitrile with 400 ng/mL internal standard (7). Similarly, samples were prepared after 30 min and 60 min incubation at 37 °C. The samples were vortexed for 30 seconds and centrifuged at 16,000 × g for 10 minutes before analyzing the supernatant. The individual analyte responses were normalized to the internal standard. Diazepam was used as positive control.
The mouse […] assay was performed by transferring 75 µL of a 10 µM solution of the test compound (0.5% DMSO), dissolved in PBS buffer (pH 7.4), to 9 wells in a microtiter plate. To each well, 75 µL mouse plasma, harvested from in-house mice into K2-EDTA tubes and centrifuged at 1,600 × g, was added. […]
The metabolic stabilities of JON-11 and the prodrugs 1a, 8-12, 19 and 20 were determined in vitro in rat plasma and rat liver microsomes. […] The corresponding loss of prodrug compounds and formation of parent drug JON-11 was determined by UHPLC-MS.

For a further data set, the system named is DTA mouse model. The data set can be described thus: DTA mouse model of narcolepsy (EEG/EMG, cataplexy). Type of data set: in vivo. To be noted: after 8-11 days of chronic administration, 100 mg/kg i.p. How it is done: Using the DTA mouse model (Tabuchi et al., 2014) we determined changes in sleep-wake EEG/EMG patterns (including cataplexy) at different time points (1 day and 8-11 days) under the influence of JON-11. After drug cessation day 14, EEG/EMG changes were mapped up to day 33. Under anesthesia with isoflurane (2% to 2.5% in O2) electrodes were placed in the scull and neck muscles of the mice. After 5-10 days recovery the electrodes are connected to a recording system, and EEG/EMG signals are recorded with synchronised video recordings. From the data, sleep/wake parameters and cataplexy episodes are scored and calculated. Analyses were performed by an observer blinded to the treatment groups.

For another data set, the target named is T4, GABAB receptor (Rattus norvegicus, UniProt Q9Z0U4).
T4 construct: from tissue; host or cells: rat brain synaptic membranes
The data set can be described thus: GABAB binding assay with [3H]GABA, rat brain synaptic membranes. As to conditions: at 100 µM.
Excerpt: as §1

The source of these data is patent publication EP3952873B1 (priority 2019, dated 2020).

pKi: −log10 of the molar value. Entries after “also recorded” stand apart in the source; their conditions may differ.

T3 sequence (Q9UBS5 1-844 isoform Q9UBS5-2): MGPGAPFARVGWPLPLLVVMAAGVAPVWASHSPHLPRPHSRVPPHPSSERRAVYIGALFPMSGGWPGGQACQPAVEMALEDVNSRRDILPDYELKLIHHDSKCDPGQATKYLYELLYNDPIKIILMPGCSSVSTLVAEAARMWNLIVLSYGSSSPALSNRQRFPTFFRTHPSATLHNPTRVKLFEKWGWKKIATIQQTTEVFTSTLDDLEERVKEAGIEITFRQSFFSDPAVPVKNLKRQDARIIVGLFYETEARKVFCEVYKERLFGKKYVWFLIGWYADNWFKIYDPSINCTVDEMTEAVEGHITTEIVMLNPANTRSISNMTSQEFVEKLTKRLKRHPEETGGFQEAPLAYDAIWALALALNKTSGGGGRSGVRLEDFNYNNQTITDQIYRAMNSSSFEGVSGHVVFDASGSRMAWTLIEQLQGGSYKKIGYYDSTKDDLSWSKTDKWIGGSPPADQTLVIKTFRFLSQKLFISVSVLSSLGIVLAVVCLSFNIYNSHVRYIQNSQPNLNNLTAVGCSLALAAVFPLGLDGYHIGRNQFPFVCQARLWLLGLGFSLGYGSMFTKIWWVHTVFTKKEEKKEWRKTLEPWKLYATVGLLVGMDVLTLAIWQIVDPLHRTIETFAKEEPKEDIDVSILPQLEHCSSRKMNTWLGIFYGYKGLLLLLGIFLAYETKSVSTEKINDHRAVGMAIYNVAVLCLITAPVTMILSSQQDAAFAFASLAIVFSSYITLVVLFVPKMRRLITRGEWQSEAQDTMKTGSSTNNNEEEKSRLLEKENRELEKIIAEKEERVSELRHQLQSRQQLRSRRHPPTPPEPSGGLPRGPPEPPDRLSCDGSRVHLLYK
T3 sequence (O75899 42-941 partner): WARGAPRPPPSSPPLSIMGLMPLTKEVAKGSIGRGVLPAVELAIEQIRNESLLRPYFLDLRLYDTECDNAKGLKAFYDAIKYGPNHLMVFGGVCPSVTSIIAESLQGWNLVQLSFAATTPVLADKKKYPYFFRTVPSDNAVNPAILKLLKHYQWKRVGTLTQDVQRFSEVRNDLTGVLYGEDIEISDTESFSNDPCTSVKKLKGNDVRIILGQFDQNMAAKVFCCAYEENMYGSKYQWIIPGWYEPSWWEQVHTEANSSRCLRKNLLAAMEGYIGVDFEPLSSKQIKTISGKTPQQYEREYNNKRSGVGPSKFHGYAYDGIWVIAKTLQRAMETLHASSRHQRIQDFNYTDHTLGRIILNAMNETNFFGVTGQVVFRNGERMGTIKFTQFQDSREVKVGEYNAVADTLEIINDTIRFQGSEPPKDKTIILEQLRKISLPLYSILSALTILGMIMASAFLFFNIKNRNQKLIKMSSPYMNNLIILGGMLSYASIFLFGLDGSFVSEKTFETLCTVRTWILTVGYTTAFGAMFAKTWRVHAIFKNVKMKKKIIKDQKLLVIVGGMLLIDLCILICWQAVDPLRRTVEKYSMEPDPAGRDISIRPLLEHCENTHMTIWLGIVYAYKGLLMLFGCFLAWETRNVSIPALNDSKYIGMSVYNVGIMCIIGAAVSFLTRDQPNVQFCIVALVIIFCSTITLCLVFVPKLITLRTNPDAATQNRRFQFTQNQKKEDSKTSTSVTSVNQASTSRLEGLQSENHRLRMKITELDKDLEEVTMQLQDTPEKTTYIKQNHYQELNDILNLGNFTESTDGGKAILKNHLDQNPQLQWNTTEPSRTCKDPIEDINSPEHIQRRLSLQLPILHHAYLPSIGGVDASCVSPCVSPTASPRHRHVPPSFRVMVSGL
T2 sequence (P11275 whole entry): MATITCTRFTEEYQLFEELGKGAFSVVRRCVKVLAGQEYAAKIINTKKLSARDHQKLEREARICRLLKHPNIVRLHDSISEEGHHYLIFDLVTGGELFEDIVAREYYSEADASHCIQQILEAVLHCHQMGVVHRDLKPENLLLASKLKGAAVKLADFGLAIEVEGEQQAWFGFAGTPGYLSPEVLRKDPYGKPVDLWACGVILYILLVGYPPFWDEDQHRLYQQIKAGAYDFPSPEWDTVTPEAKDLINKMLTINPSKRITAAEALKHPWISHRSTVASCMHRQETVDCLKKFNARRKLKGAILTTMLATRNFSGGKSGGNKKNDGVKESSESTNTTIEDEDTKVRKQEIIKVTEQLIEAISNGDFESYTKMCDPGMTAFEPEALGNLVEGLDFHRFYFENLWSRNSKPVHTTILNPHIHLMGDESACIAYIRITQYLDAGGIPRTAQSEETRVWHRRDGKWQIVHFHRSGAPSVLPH
T4 sequence (Q9Z0U4 20-960): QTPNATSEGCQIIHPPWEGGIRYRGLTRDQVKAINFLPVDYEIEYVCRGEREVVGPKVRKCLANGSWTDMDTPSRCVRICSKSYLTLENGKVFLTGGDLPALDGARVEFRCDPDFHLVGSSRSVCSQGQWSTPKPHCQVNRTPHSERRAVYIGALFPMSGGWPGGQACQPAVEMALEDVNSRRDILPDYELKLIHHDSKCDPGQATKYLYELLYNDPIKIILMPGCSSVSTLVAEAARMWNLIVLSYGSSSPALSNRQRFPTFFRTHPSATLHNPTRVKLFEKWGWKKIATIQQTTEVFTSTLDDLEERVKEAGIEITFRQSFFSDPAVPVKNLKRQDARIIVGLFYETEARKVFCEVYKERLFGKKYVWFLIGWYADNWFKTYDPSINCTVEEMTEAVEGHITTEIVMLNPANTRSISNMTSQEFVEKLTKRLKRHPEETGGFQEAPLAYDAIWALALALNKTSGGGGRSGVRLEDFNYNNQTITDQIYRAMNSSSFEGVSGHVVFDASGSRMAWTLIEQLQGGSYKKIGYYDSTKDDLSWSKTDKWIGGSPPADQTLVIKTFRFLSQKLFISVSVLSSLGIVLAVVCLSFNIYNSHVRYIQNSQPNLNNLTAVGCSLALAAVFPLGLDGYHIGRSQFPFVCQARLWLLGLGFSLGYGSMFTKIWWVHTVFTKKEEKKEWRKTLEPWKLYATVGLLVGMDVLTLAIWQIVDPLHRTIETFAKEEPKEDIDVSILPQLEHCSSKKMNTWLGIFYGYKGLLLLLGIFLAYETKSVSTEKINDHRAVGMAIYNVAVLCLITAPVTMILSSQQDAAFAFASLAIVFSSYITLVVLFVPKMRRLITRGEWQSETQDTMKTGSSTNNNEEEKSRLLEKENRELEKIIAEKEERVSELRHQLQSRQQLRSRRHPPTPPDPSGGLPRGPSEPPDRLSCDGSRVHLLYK
T4 sequence (O88871 41-940 partner): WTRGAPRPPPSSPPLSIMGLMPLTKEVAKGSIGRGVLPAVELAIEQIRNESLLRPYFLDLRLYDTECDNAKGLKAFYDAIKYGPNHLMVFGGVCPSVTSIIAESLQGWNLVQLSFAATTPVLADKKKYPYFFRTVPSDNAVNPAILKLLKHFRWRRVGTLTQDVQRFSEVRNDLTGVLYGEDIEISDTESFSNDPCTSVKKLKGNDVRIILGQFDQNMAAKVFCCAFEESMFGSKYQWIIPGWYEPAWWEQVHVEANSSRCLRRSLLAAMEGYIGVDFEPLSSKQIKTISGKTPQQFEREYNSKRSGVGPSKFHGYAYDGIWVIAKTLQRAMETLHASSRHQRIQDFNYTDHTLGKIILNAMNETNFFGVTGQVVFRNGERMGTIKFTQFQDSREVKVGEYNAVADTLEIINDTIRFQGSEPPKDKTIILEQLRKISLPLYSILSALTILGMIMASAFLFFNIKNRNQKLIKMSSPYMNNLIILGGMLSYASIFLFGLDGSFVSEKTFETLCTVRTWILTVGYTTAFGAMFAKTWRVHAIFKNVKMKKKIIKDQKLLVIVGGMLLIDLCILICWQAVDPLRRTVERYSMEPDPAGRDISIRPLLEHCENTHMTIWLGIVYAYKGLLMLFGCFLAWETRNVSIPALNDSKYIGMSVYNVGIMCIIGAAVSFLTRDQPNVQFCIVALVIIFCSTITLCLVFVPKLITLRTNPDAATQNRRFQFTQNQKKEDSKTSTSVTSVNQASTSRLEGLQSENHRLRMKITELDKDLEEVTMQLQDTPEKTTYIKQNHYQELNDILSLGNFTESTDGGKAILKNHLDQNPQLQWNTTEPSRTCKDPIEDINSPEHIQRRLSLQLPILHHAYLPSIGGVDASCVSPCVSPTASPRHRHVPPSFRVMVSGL
T1 sequence (P11275 whole entry): as the sequence (P11275 whole entry) above

Usually pKi stands for −log10 of the Ki, conventionally taken in molar units. For `O=C(O)Cc1cn2nc(-c3ccc(Cl)cc3)ccc2n1` [JON-11, 2-(6-(4-Chlorophenyl)imidazo[1,2-b]pyridazin-2-yl)acetic acid], the pKi in data set [1] was 6.66; at recombinant CaMK2a (5 nM [3H]HOCPCA, whole cell lysates of CaMK2a-transfected HEK293T cells), 5.46. In addition, on recombinant CaMK2a (ratio of Ki values, [3H]HOCPCA binding), the “higher affinity compared to GHB” value came to 14 x. At GABAB(1b,2) receptors, the “agonistic activity at recombinant GABAB receptors” value was “not a GABAB agonist; also recorded: Lack of agonistic activity”. Further, the “Chemical or enzymatic degradation” value in data set [2] is “not observed”. Besides, the “number of cataplexy attacks” value in the data set on DTA mouse model was “significantly decreases”. Also, the “ability to compete with [3H]GABA” value on GABAB receptor is reported as “no ability to compete”.
